Where a name gives a salt, the structure may show the parent alone.
How the values were obtained:
IL-4 production [1] = assay: Test 1: inhibition of IL-4 production in human T-cell strain ATL-16T(-) stimulated with PMA (R&D Systems EIA); format: cell-based; details: ATL-16T(-) 1×10^6 cells/0.5 ml/well, 20 nM PMA, 48 hours, read-out: Inhibition rate of IL-4 production; for inhibition at 10 µM: 10^-5 M; for inhibition at 1 µM: 10^-6 M; for inhibition at 0.1 µM: 10^-7 M; for inhibition at 0.01 µM: 10^-8 M
Protocol: Test 1: Test on the inhibition of IL-4 production
(§1) Into individual wells of a 48-well microplate, the human T-cell strain ATL-16T(-) was poured at a concentration of 1×10^6 cells/0.5 ml/well (n=3), followed by the addition of a stimulator (20 nM of PMA) and a medicament at the same time. The resulting mixture was incubated in 5% CO2 at 37° C. for 48 hours. After incubation, 100 μl of the supernatant were collected and subjected to measurement by a human IL-4 EIA kit (R&D SYSTEMS, INC.). The inhibition rate was calculated according to the following formula. [formula]

IL-5 production = assay: Test 3: inhibition of IL-5 production in human PBMC stimulated with ConA; format: cell-based; details: 10^-6 M, 10 μg/ml ConA, 48 hours, read-out: Inhibition rate of IL-5 production
How it was run: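 Human PBMC from a normal volunteer, 1×10^6 cells/ml in AIM-V, stimulated with 10 μg/ml ConA alongside compound and incubated 48 h at 37 °C, 5% CO2. Supernatant IL-5 quantified by EIA; inhibition rate calculated from a formula.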

IgE production = assay: Test 4: inhibition of IgE production by spleen cells of orally treated sensitized mice; format: in vivo, Balb/c mouse; details: Mus musculus, po, 100 mg/kg orally once a day, Day 1 to Day 10, DNP-BSA 5 μg/ml, 24 hours, read-out: Inhibition rate of IgE production
Protocol: (§2) Test 4: Test on the inhibition of IgE production
(§3) To a Balb/c mouse, the DNP-labeled ascaris antigen (5 μg) and Alum (1 mg) were intraperitoneally administered on Day 1 and Day 6 to sensitize the mouse with the antibody. From Day 1 to Day 10, a medicament was orally administered at a dose of 100 mg/kg once a day. On Day 11, the mouse was subjected to splenectomy and the spleen so obtained was untangled into its cells. To 5×10^7 cells/ml of the spleen cells so obtained, DNP-BSA (5 μg/ml) was added, followed by incubation at 37° C. for 24 hours. After incubation, 100 μl of the supernatant were collected and subjected to the measurement an IgE measuring kit (Yamasa Co., Ltd.). In order to determine IgG1, IgG2a and IgM, the absorbance of the incubated supernatant was measured by the EIA method and provided for comparison. The inhibition rate of IgE production was calculated according to the below-described formula. Inhibition rates of the IgG1, IgG2a and IgM production were similarly calculated, respectively. [formula]

IgM production = assay: Test 4 (comparison): inhibition of IgM production; format: in vivo, Balb/c mouse; details: 100 mg/kg orally once a day; for inhibition at 100 mg/kg: Mus musculus, po, Day 1 to Day 10, spleen cells, DNP-BSA 5 μg/ml, 24 hours, read-out: Inhibition rate of IgM production
Protocol: as §2, §3

IgG1 production = assay: Test 4 (comparison): inhibition of IgG1 production; format: in vivo, Balb/c mouse; details: 100 mg/kg orally once a day; for inhibition at 100 mg/kg: Mus musculus, po, Day 1 to Day 10, spleen cells, DNP-BSA 5 μg/ml, 24 hours, read-out: Inhibition rate of IgG1 production
Protocol: as §2, §3

IgG2a production = assay: Test 4 (comparison): inhibition of IgG2a production; format: in vivo, Balb/c mouse; details: 100 mg/kg orally once a day; for inhibition at 100 mg/kg: Mus musculus, po, Day 1 to Day 10, spleen cells, DNP-BSA 5 μg/ml, 24 hours, read-out: Inhibition rate of IgG2a production
Protocol: as §2, §3

IL-4 production [2] = assay: Test 2: inhibition of IL-4 production in human T-cell strain ATL-16T(-) stimulated with PMA (Bio Source EIA); format: cell-based; details: ATL-16T(-) 5×10^5 cells/0.5 ml/well, 20 nM PMA, 48 hours, read-out: Inhibition rate of IL-4 production; for inhibition at 10 µM: 10^-5 M; for inhibition at 1 µM: 10^-6 M; for inhibition at 0.1 µM: 10^-7 M; for inhibition at 0.01 µM: 10^-8 M
Protocol: Test 2: Test on the inhibition of IL-4 production
as §1, with “5×10^5” for “1×10^6”, “50” for “100”, “(BIO SOURCE,” for “(R&D SYSTEMS,”

Structure (SMILES) | inhibition at 10 µM (IL-4 production [1]) | inhibition at 1 µM (IL-4 production [1]) | inhibition at 0.1 µM (IL-4 production [1]) | inhibition at 0.01 µM (IL-4 production [1]) | inhibition at 1 µM (IL-5 production) | inhibition at 100 mg/kg (IgE production) | inhibition at 100 mg/kg (IgM production) | inhibition at 100 mg/kg (IgG1 production) | inhibition at 100 mg/kg (IgG2a production) | inhibition at 10 µM (IL-4 production [2]) | inhibition at 1 µM (IL-4 production [2]) | inhibition at 0.1 µM (IL-4 production [2]) | inhibition at 0.01 µM (IL-4 production [2]) | effects on the production of IgM (IgM production; in words) | effects on the production of IgG1 (IgG1 production; in words) | effects on the production of IgG2a (IgG2a production; in words)
COc1cnc(/C=C/C(=O)c2ccccc2)cc1OC [Ex. 1, 4,5-dimethoxy-2-(3-oxo-3-phenyl-1-propenyl)pyridine] | 97.5% | 87.9% | 80.3% | 59.9% | 95.3% | 42% | -8% | 1.6% | 4.6% | – | – | – | – | – | – | –
CCCCCC(=O)/C=C/c1cc(OCCCCCC(=O)OC)c(OC)cn1 [Ex. 15, Methyl 6-[5-methoxy-2-(3-oxo-1-octenyl)-4-pyridyloxy]hexanoate] | 76.8% | 58.9% | 55.9% | 49.1% | 79.2% | 23.5% | -5.4% | 9.9% | 4.6% | – | – | – | – | – | – | –
COc1cnc(/C=C/C(=O)c2ccccc2)cc1O [Ex. 19, 4-hydroxy-5-methoxy-2-(3-oxo-3-phenyl-1-propenyl)-pyridine] | 106% | 98.1% | 95.1% | 83.8% | 94.8% | 30.6% | 1.2% | 8% | 0.9% | – | – | – | – | – | – | –
O=C(/C=C/c1cc(O)c(O)cn1)c1ccccc1 [Ex. 20, 4,5-Dihydroxy-2-(3-oxo-3-phenyl-1-propenyl)pyridine] | 97.9% | 96.4% | 90.6% | 84% | 92.8% | 23.7% | -6.2% | 7.4% | 1.3% | – | – | – | – | – | – | –
CCOC(=O)CCCOc1cc(/C=C/C(=O)c2ccccc2)ncc1OC [Ex. 44, Ethyl 4-[5-methyoxy-2-(3-oxo-3-phenyl-1-propenyl)-4-pyridyloxy]butanoate] | 89.1% | 86.1% | 56.2% | 46.5% | 90.6% | 26.7% | -4.2% | 8% | -2.2% | – | – | – | – | – | – | –
CCOC(=O)CCCCCOc1cc(/C=C/C(=O)C2CCCCC2)ncc1OC [Ex. 77, Ethyl 6-[2-(3-cyclohexyl-3-oxo-1-propenyl)-5-methoxy-4-pyridyloxy]hexanoatehydrochloride] | – | – | – | – | 82% | 55.8% | 1.2% | -6.3% | -3.9% | 68.6% | 66% | 65% | 64.5% | No effects were observed | No effects were observed | No effects were observed
CCOC(=O)CCCOc1cc(/C=C/C(=O)c2c(OC)cccc2OC)ncc1OC [Ex. 86, Ethyl 4-[5-methoxy-2-(3-(2,6-dimethoxyphenyl)-3-oxo-1-propenyl)-4-pyridyloxy]butanoate hydrochloride] | – | – | – | – | 71.9% | 35.9% | -2.7% | -1.1% | 6.2% | 94.6% | 80.1% | 77.6% | 73.6% | – | – | –
CCOC(=O)CCCOc1cc(/C=C/C(=O)c2cc(OC)ccc2OC)ncc1OC [Ex. 87, Ethyl 4-[5-methoxy-2-(3-(2,5-dimethoxyphenyl)-3-oxo-1-propenyl)-4-pyridyloxy]butanoate hydrochloride] | – | – | – | – | 90.2% | 30.5% | -0.1% | -3.4% | -8.1% | 78.3% | 73.4% | 72.2% | 69.3% | – | – | –
CCOC(=O)CCCCCOc1cc(/C=C/C(=O)c2cc(OC)ccc2OC)ncc1OC [Ex. 88, Ethyl 6-[5-methoxy-2-(3-(2,5-dimethoxyphenyl)-3-oxo-1-propenyl)-4-pyridyloxy]hexanoate hydrochloride] | – | – | – | – | 61.6% | 22.7% | -4.2% | -6.9% | 8.6% | 74.2% | 74.4% | 71.7% | 68% | – | – | –
CCOC(=O)CCCCCOc1cc(/C=C/C(=O)c2ccc(OC)c(OC)c2)ncc1OC [Ex. 90, Ethyl 6-[5-methoxy-2-(3-(3,4-dimethoxyphenyl)-3-oxo-1-propenyl)-4-pyridyloxy]hexanoate hydrochloride] | – | – | – | – | 75.6% | 21.5% | -10.3% | 2.7% | 7% | 25.3% | 26.4% | 28.6% | 43.2% | – | – | –
CCOC(=O)CCCCCCCCCCCOc1cc(/C=C/C(=O)c2ccccc2OC)ncc1OC [Ex. 97, Ethyl 12-[5-methoxy-2-(3-(2-methoxyphenyl)-3-oxo-1-propenyl)-4-pyridyloxy]dodecanoate hydrochloride] | – | – | – | – | 93.9% | 30.5% | 1.9% | 5.6% | -9.5% | – | – | – | – | – | – | –
COC(=O)c1ccc(COc2cc(/C=C/C(=O)c3ccccc3OC)ncc2OC)cc1 [Ex. 99] | – | – | – | – | 80.3% | 34.8% | 8.5% | 6.1% | 2.7% | – | – | – | – | – | – | –
CCOC(=O)CCCCCOc1cc(/C=C/C(=O)c2ccsc2)ncc1OC [Ex. 100, Ethyl 6-[5-methoxy-2-(3-oxo-3-(3-thienyl)-1-propenyl)-4-pyridyloxy]hexanoate hyd rochloride] | – | – | – | – | 82.6% | 23.9% | -9% | -4% | -5.1% | – | – | – | – | – | – | –
